Reference: patent US8722849B2, “Polypeptides” (Novo Nordisk A/S, priority 2011, dated 2014)
In brackets after ≈: the same amount, converted by molar mass. Where two headings read alike, the source gives them in different places. Starred links: 1 amine or outer side, 2 acyl side, 3 side chain; linkers in the order of their positions; H or OH if unused. Positions of bridges follow the written chain, without caps; N, C: chain ends. Residues, ends and D or L forms follow the SMILES beside them. *: point of attachment. C20 diacid = O=C(O)CCCCCCCCCCCCCCCCCCC(=O)*; γGlu = O=C(O)[C@H](CCC(=O)[*:2])N[*:1]

Columns and labels:
[1] = molecular target: T1, human amylin receptor (amylin 3(a) receptor: human calcitonin receptor + RAMP-3) (Homo sapiens, UniProt O60896+P30988); assay: Assay (II)a functional CRE-luciferase assay, human amylin receptor; assay type: cell-based
T1 construct: expressed in transfected cells; host or cells: BHK570
T1 sequence (P30988 25-474): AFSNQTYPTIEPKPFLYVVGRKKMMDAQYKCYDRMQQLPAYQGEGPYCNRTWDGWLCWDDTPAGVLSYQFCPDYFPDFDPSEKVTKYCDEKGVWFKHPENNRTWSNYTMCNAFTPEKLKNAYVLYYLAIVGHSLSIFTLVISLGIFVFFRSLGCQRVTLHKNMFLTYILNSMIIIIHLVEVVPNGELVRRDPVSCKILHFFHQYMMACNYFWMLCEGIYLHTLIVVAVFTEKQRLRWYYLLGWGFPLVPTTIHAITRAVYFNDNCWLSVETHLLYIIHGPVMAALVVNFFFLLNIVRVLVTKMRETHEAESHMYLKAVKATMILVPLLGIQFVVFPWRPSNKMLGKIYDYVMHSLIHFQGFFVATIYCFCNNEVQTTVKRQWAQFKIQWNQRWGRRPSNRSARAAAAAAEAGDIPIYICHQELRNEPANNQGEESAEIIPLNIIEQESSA
T1 sequence (O60896 24-148 partner): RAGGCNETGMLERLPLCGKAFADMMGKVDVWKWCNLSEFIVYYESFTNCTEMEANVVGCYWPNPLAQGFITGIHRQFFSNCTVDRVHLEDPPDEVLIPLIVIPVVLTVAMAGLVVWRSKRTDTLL
Source text: (§1) 1. Luciferase Assay Outline
(§2) Activation of calcitonin and amylin (coexpression of calcitonin receptor and receptor activity modifying proteins (RAMP)) receptors lead to increased intracellular concentrations of cAMP. Consequently, transcription is activated by promoters containing multiple copies of the cAMP response element (CRE). It is thus possible to measure amylin activity by the use of a CRE luciferase reporter gene introduced into BHK cells also expressing calcitonin or amylin receptors.
(§3) A BHK570 cell line was stably transfected with the human calcitonin receptor and a CRE-responsive luciferase reporter gene. The cell line was further transfected with RAMP-3, using standard methods. This turns the calcitonin receptor into an amylin 3(a) receptor. Methotrexate, Neomycin, and Hygromycin are selection markers for luciferase, the calcitonin receptor, and RAMP-3, respectively.
(§4) To perform activity assays, BHK calcitonin (a) receptor- or amylin 3(a)-receptor/CRE-luc cells were seeded in white 96 well culture plates at a density of about 20.000 cells/well. […] Further, 50 μl/well of standard or sample in assay buffer were added. After 3 hours incubation at 37° C. and 5% CO2, the assay medium with standard or sample were removed and replaced by 100 μl/well PBS. Further, 100 μl/well LucLite™ was added. The plates were sealed and incubated at room temperature for 30 minutes. Finally, luminescence was measured on a TopCounter (Packard) in SPC (single photon counting) mode.

[2] = molecular target: T2, human calcitonin receptor (Homo sapiens, UniProt P30988); assay: Assay (II)a functional CRE-luciferase assay, human calcitonin receptor; assay type: cell-based; conditions: Table 7; human calcitonin (CTa) receptor
T2 construct: expressed in transfected cells; host or cells: BHK570
T2 sequence (P30988 25-474): T1 sequence (P30988 25-474)
Source text: as §1, §2, §3, §4

[3] = Assay (IV) determination of solubility; assay type: physicochemical
In short: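 Stock ~500 nmol/ml in water; 1:1 with 100 mM buffer, pH 3.0–8.0 (glycylglycine ≤5.0, bistrispropane ≥6.0); 18 h RT; spin; HPLC quantitation of soluble polypeptide.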

[4] = bistrispropane buffer, pH 6, pH 6.0, read-out: Solubility pH 6.0
[5] = bistrispropane buffer, pH 7.5, pH 7.5, read-out: Solubility pH 7.5
[6] = bistrispropane buffer, pH 8, pH 8.0, read-out: Solubility pH 8.0
[7] = glycylglycine buffer, pH 3, pH 3.0, read-out: Solubility pH 3.0
[8] = glycylglycine buffer, pH 4, pH 4.0, read-out: Solubility pH 4.0
[9] = glycylglycine buffer, pH 5, pH 5.0, read-out: Solubility pH 5.0

| Compound | EC50 ([1]; Table 2, BHK amylin 3(a)-receptor/CRE-luc cells) [nM] | EC50 [2] [nM] | solubility at 18 h [3, 4] [µM] | solubility at 18 h [3, 5] [µM] | solubility at 18 h [3, 6] [µM] | solubility at 18 h [3, 7] [µM] | solubility at 18 h ([3]; glycylglycine buffer, pH 4, pH 4.0, 18 hours at room temperature, Table 2, read-out: Solubility pH 4.0) [µM] | solubility at 18 h [3, 8] [µM] | solubility at 18 h [3, 9] [µM] | solubility at 18 h ([3]; pH 6.5, read-out: Solubility pH 6.5) [µM] | solubility at 18 h ([3]; pH 7.0, read-out: Solubility pH 7.0) [µM] | EC50 ([1]; Table 6, human amylin receptor) [nM] | solubility at 18 h ([3]; bistrispropane buffer, pH 6.5, pH 6.5, read-out: Solubility pH 6.5) [µM] | solubility at 18 h ([3]; bistrispropane buffer, pH 7, pH 7.0, read-out: Solubility pH 7.0) [µM] |
| --- | --- | --- | --- | --- | --- | --- | --- | --- | --- | --- | --- | --- | --- | --- |
| CC(C)C[C@H](NC(=O)[C@H](CCCNC(=N)N)NC(=O)[C@H](CCC(N)=O)NC(=O)[C@@H](NC(=O)[C@H](C)NC(=O)[C@@H]1CSSC[C@H](NC(=O)[C@H](Cc2cnc[nH]2)NC(=O)CC[C@H](NC(=O)CCCCCCCCCCCCCCCCCCC(=O)O)C(=O)O)C(=O)N[C@@H](CC(N)=O)C(=O)N[C@@H]([C@@H](C)O)C(=O)N[C@@H](C)C(=O)N[C@@H]([C@@H](C)O)C(=O)N1)[C@@H](C)O)C(=O)N[C@@H](C)C(=O)N[C@@H](CCC(=O)O)C(=O)N[C@@H](Cc1ccccc1)C(=O)N[C@@H](CC(C)C)C(=O)N[C@@H](Cc1cnc[nH]1)C(=O)N[C@@H](CCCNC(=N)N)C(=O)N[C@@H](CO)C(=O)N[C@@H](CO)C(=O)N[C@@H](CC(N)=O)C(=O)N[C@@H](CC(N)=O)C(=O)N[C@@H](Cc1ccccc1)C(=O)NCC(=O)N[C@@H](C)C(=O)N1CCC[C@H]1C(=O)N[C@@H](CC(C)C)C(=O)N[C@@H](CO)C(=O)N[C@@H](CO)C(=O)N[C@H](C(=O)N[C@@H](CC(N)=O)C(=O)N[C@H](C(=O)NCC(=O)N[C@@H](CO)C(=O)N[C@@H](CC(N)=O)C(=O)N[C@H](C(=O)N[C@@H](Cc1ccc(O)cc1)C(N)=O)[C@@H](C)O)C(C)C)[C@@H](C)O [Example 6, N-alpha-[(S)-4-Carboxy-4-(19-carboxynonadecanoylamino)butyryl]-[His1,Glu14,His17,Arg18,Ala25,Pro26,Ser28,Ser29]-pramlintide] ({C20 diacid-γGlu}-HCNTATCATQRLAEFLHRSSNNFGAPLSSTNVGSNTY-NH2; disulfide 2-7) | 0.115 | 0.24 | 12 (≈ 53.1 µg/mL) | 18 (≈ 79.6 µg/mL) | 48 (≈ 212 µg/mL) | > 200 | 163 (≈ 721 µg/mL) | 163 (≈ 721 µg/mL) | 168 (≈ 743 µg/mL) | 4 (≈ 17.7 µg/mL) | 7 (≈ 31 µg/mL) |  |  |  |
| CC(C)C[C@H](NC(=O)[C@H](CCCNC(=N)N)NC(=O)[C@H](CCC(N)=O)NC(=O)[C@@H](NC(=O)[C@H](C)NC(=O)[C@@H]1CSSC[C@H](NC(=O)[C@H](Cc2c[nH]cn2)NC(=O)CC[C@H](NC(=O)CCCCCCCCCCCCCCCCCCC(=O)O)C(=O)O)C(=O)N[C@@H](CC(N)=O)C(=O)N[C@@H]([C@@H](C)O)C(=O)N[C@@H](C)C(=O)N[C@@H]([C@@H](C)O)C(=O)N1)[C@@H](C)O)C(=O)N[C@@H](C)C(=O)N[C@@H](CCC(=O)O)C(=O)N[C@@H](Cc1ccccc1)C(=O)N[C@@H](CC(C)C)C(=O)N[C@@H](Cc1c[nH]cn1)C(=O)N[C@@H](CCCNC(=N)N)C(=O)N[C@@H](CO)C(=O)N[C@@H](CO)C(=O)N[C@@H](CC(N)=O)C(=O)N[C@@H](CCC(=O)O)C(=O)N[C@@H](Cc1ccccc1)C(=O)NCC(=O)N[C@@H](C)C(=O)N[C@@H](CCCNC(=N)N)C(=O)N[C@@H](CC(C)C)C(=O)N[C@@H](CO)C(=O)N[C@@H](CO)C(=O)N[C@H](C(=O)N[C@@H](CC(N)=O)C(=O)N[C@H](C(=O)NCC(=O)N[C@@H](CO)C(=O)N[C@@H](CC(N)=O)C(=O)N[C@H](C(=O)N[C@@H](Cc1ccc(O)cc1)C(N)=O)[C@@H](C)O)C(C)C)[C@@H](C)O [Example 8, N-alpha-[(S)-4-Carboxy-4-(19-carboxynonadecanoylamino)butyryl]-[His1,Glu14,His17,Arg18,Glu22,Ala25,Arg26,Ser28,Ser29]-pramlintide] ({C20 diacid-γGlu}-HCNTATCATQRLAEFLHRSSNEFGARLSSTNVGSNTY-NH2; disulfide 2-7 (inferred)) |  | 0.279 | 1 (≈ 4.5 µg/mL) | 1 (≈ 4.5 µg/mL) | 3 (≈ 13.5 µg/mL) | 178 (≈ 800 µg/mL) |  | 93 (≈ 418 µg/mL) | 2 (≈ 8.99 µg/mL) |  |  | 0.127 | 1 (≈ 4.5 µg/mL) | 1 (≈ 4.5 µg/mL) |
